# According to patent publication US4562287A, “2-(4-Biphenylyl)-4-hexenoic acid and derivatives thereof having anti-inflammatory activity” (priority 1983, dated 1985):
# Legend:
# Kaolin edema = assay: Edema induced by different substances: kaolin (Table 3); type: in vivo
# Excerpt: (§1) |Edema induced by different substances.
# [1] = system: capillary permeability (Dextran); assay: Effect on the capillary permeability, dextran; type: in vivo; details: 200 mg/Kg p.o., checks 14.83
# Excerpt: (§2) |Effect on the capillary permeability
# [2] = system: Cotton-pellets induced granuloma; assay: Cotton-pellets induced granuloma; type: in vivo; details: 200 mg/Kg p.o.
# Excerpt: | Cotton-pellets induced granuloma.
# [3] = system: capillary permeability (Histamine); assay: Effect on the capillary permeability, histamine; type: in vivo; details: 200 mg/Kg p.o., checks 21.33
# Excerpt: as §2
# [4] = system: Hot plate, endurance time at 52° C.; assay: Analgesic activity, Hot plate (I); type: in vivo; details: 50 mg/Kg p.o.
# Experimental: Dose endurance time at 52° C. over checks
# [5] = system: capillary permeability (Serotonin); details: 200 mg/Kg p.o., checks 18.16
# [6] = system: Carragenine induced edema; assay: Anti-inflammatory activity on carragenine induced edema (Table 11); type: in vivo
# Carragenine edema = assay: Edema induced by different substances: carragenine (Table 3); type: in vivo
# Excerpt: as §1
# Yeast edema = assay: Edema induced by different substances: yeast (Table 3); type: in vivo
# Excerpt: |Edema induced by different substances. | % edema inhibition
# Dextrose edema = assay: Edema induced by different substances: dextrose (Table 3); type: in vivo
# Excerpt: as §1
# [7] = system: Carragenine induced edema; assay: Activity on carragenine induced edema (Table 9); type: in vivo
# Excerpt: |Activity on carragenine induced edema.
# [8] = British Patent No. 847.779; cited from earlier work
# Serotonin edema = assay: Edema induced by different substances: serotonin (Table 3); type: in vivo
# Excerpt: as §1
# [9] = system: erytrocytes sedimetation rate (ESR); assay: Erytrocytes sedimetation rate (ESR) (Table 8); type: in vivo; details: arthritis checks 41, 56
# ulcerogenic effect = details: dose 5 mg; cited from earlier work
# [10] = system: Freund's adjuvant induced arthritis; assay: Freund's adjuvant induced arthritis, edema inhibition
# Joint's diameter = Joint's diameter in arthritis (Table 7); type: in vivo; set-up: unit not given here
# [11] = system: Carragenine induced edema; assay: Carragenine induced edema, first test (Table 2); type: in vivo
# Excerpt: |ANTI-INFLAMMATORY ACTIVITY. |Carragenine induced edema, first test.
# SH Groups in serum = assay: SH groups in serum (Table 8); type: in vivo; details: arthritis checks 70, 77
smiles,measurement,setting,value
"CC=CCC(C(=O)O)c1ccc(-c2ccccc2)cc1 (racemic) [SCR 157, 2-(4-biphenyl)-4-hexenoic acid]",% edema inhibition,Kaolin edema; 50 mg/Kg p.o.,42%
same,% edema inhibition,Kaolin edema; 100 mg/Kg p.o.,49%
same,% edema inhibition,Kaolin edema; 200 mg/Kg p.o.,57%
same,"Effect on the capillary permeability, .0. m.micron",[1],14.85 m.micron
same,% inhibition,[2],29%
same,"Effect on the capillary permeability, .0. m.micron",[3],20.28 m.micron
same,endurance time at 52° C. over checks,[4]; 1 hour,3
same,endurance time at 52° C. over checks,[4]; 2 hours,26
same,"Effect on the capillary permeability, .0. m.micron",[5],16.57 m.micron
same,% inhibition,[6]; 50 mg/Kg p.o.,33%
same,% edema inhibition,Carragenine edema; 50 mg/Kg p.o.,8%
same,% edema inhibition,Carragenine edema; 100 mg/Kg p.o.,43%
same,% edema inhibition,Carragenine edema; 200 mg/Kg p.o.,64%
same,% edema inhibition,Yeast edema; 50 mg/Kg p.o.,11%
same,% edema inhibition,Yeast edema; 100 mg/Kg p.o.,22%
same,% edema inhibition,Yeast edema; 200 mg/Kg p.o.,28%
same,% edema inhibition,Dextrose edema; 50 mg/Kg p.o.,0%
same,% edema inhibition,Dextrose edema; 100 mg/Kg p.o.,8%
same,% edema inhibition,Dextrose edema; 200 mg/Kg p.o.,8%
same,Inhibition %,[7]; 50 mg/Kg p.o.,10%
same,Inhibition %,[7]; 75 mg/Kg p.o.,31%
same,Inhibition %,"[7]; 112,5 mg/Kg p.o.",24%
same,anticholesterinemic and antiliphaemic properties,[8],exhibits properties of anticholesterinemic and antiliphaemic agent
same,% edema inhibition,Serotonin edema; 50 mg/Kg p.o.,0%
same,% edema inhibition,Serotonin edema; 100 mg/Kg p.o.,16%
same,% edema inhibition,Serotonin edema; 200 mg/Kg p.o.,22%
COc1ccc2c(c1)c(CC(=O)O)c(C)n2C(=O)c1ccc(Cl)cc1 [Indomethacin],E.S.R.,[9]; 1 mg/Kg p.o.,38
same,E.S.R.,[9]; 2 mg/Kg p.o.,15
same,ulcerogenic effect,ulcerogenic effect,exhibits surely ulcerogenic effect
same,Edema inhibition %,"[10]; 1 mg/Kg p.o., 2 days",49%
same,Edema inhibition %,"[10]; 1 mg/Kg p.o., 4 days",7%
same,Edema inhibition %,"[10]; 1 mg/Kg p.o., 8 days",27%
same,Edema inhibition %,"[10]; 1 mg/Kg p.o., 12 days",58%
same,Edema inhibition %,"[10]; 1 mg/Kg p.o., 16 days",60%
same,Edema inhibition %,"[10]; 1 mg/Kg p.o., 20 days",37%
same,Edema inhibition %,"[10]; 1 mg/Kg p.o., 24 days",57%
same,Edema inhibition %,"[10]; 2 mg/Kg p.o., 2 days",49%
same,Edema inhibition %,"[10]; 2 mg/Kg p.o., 4 days",35%
same,Edema inhibition %,"[10]; 2 mg/Kg p.o., 8 days",51%
same,Edema inhibition %,"[10]; 2 mg/Kg p.o., 12 days",48%
same,Edema inhibition %,"[10]; 2 mg/Kg p.o., 16 days",71%
same,Edema inhibition %,"[10]; 2 mg/Kg p.o., 20 days",73%
same,Edema inhibition %,"[10]; 2 mg/Kg p.o., 24 days",71%
same,Joint's diameter,"Joint's diameter; 1 mg/Kg p.o., 1 week, arthritis checks 0.48, 0.38",0.38
same,Joint's diameter,"Joint's diameter; 1 mg/Kg p.o., 2 weeks, arthritis checks 0.71, 0.75",0.50
same,Joint's diameter,"Joint's diameter; 1 mg/Kg p.o., 3 weeks, arthritis checks 0.81, 0.79",0.49
same,Joint's diameter,"Joint's diameter; 1 mg/Kg p.o., 4 weeks, arthritis checks 0.85, 0.89",0.55
same,Joint's diameter,"Joint's diameter; 2 mg/Kg p.o., 1 week, arthritis checks 0.48, 0.38",0.22
same,Joint's diameter,"Joint's diameter; 2 mg/Kg p.o., 2 weeks, arthritis checks 0.71, 0.75",0.39
same,Joint's diameter,"Joint's diameter; 2 mg/Kg p.o., 3 weeks, arthritis checks 0.81, 0.79",0.34
same,Joint's diameter,"Joint's diameter; 2 mg/Kg p.o., 4 weeks, arthritis checks 0.85, 0.89",0.34
same,% inhibition,[6]; 5 mg/Kg p.o.,38%
same,% inhibition,[11]; 2.5 mg/Kg p.o.,33%
same,% inhibition,[11]; 5 mg/Kg p.o.,36%
same,% inhibition,[11]; 10 mg/Kg p.o.,48%
same,SH groups diminution in %,SH Groups in serum; 1 mg/Kg p.o.,78%
same,SH groups diminution in %,SH Groups in serum; 2 mg/Kg p.o.,50%
